Test results published in patent publication US8378117B2 (priority 2005, dated 2013).

What was measured:
CB1 receptor [1] = biological target: T1, CB1 receptor (Homo sapiens, UniProt P21554); experiment: Binding assay for CB1 agonists or inverse agonists (SK-N-MC membranes, [3H]-CP-55,940)
T1 construct: expressed in transfected cells
In short: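 Radioligand displacement: [3H]-CP-55,940 at […], 90 min at 30° C, pH 7.5 Tris buffer with 0.5 mg/mL fatty-acid-free BSA, using semi-purified membranes of human-CB1-transfected SK-N-MC cells. Bound counts collected on GF/C filters, 10 uM WIN 55,212 for non-specific; IC50 from percent inhibition over several concentrations.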

CB2 receptor [2] = biological target: T2, CB2 receptor (Homo sapiens, UniProt P34972); experiment: Binding assay for CB2 agonists or inverse agonists (SK-N-MC membranes, [3H]-CP-55,940)
T2 construct: expressed in transfected cells
T2 sequence (P34972 whole entry): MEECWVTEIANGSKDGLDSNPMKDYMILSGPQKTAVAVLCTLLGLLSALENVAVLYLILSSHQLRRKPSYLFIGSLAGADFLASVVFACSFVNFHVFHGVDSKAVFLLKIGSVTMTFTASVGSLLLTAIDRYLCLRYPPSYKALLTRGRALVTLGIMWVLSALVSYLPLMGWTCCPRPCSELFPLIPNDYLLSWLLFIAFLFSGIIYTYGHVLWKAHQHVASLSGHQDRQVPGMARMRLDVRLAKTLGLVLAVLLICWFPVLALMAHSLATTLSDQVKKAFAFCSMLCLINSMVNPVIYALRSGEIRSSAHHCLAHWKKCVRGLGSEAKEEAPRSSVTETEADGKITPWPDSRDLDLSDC
In short: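 IC50 came from percent-inhibition data over several compound concentrations, fitted by linear regression. Binding used semi-purified membranes of human CB2-transfected SK-N-MC cells, 90 min at 30 °C, pH 7.5 Tris-HCl with MgCl2, EDTA and BSA, then filtration and scintillation counting.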

CB1 receptor [3] = biological target: T1, CB1 receptor; experiment: Modified functional cell-based assay (Beta-Glo luminescence), CB1 receptor; conditions: CB1 EC50 (Receptor Functional Activity), one sample per compound, Cpd 237 n=3
Method: (§1) Additional functional activity studies were performed with minor modifications. Beta galactosidase activity was quantified using the luminescent Beta-Glo Assay System (Promega Corp. Madison, Wis.) and an Orion Microplate Luminometer (Berthold Detection Systems, Oak Ridge, Tenn.). The EC50 values were calculated using GraphPad Prism and a four parameter logistic equation.
(§2) The functional activity EC50 value for compounds tested (shown in Table 8) were obtained from studies in which varying compound concentrations were used. With the exception of Cpd 237 (n=3), one sample for each compound was tested.

CB2 receptor [4] = biological target: T2, CB2 receptor; experiment: Modified functional cell-based assay (Beta-Glo luminescence), CB2 receptor; conditions: CB2 EC50 (Receptor Functional Activity), one sample per compound, Cpd 237 n=3
Method: as §1, §2

Male CD-1 mice [5] = experiment: Postoperative inflammatory ileus, microscopic myeloperoxidase histological examination; assay type: in vivo; conditions: Surgical Manipulation, dose 1 mg/kg, 24 hr post-laparotomy, mean ± SE
Method: (§3) Male CD-1 mice were anesthetized by inhaled isoflurane and prepared for surgery. The abdomen was shaved of hair and treated with antiseptic solution. The animal was then covered with a surgical drape, leaving the abdomen exposed. A mid-line laparotomy was performed, and the entire small intestine was exteriorized onto the sterile drape. Using two moistened, sterile, cotton-tipped applicators, the small intestine was then gently compressed along its length from the ligament of Treitz to the ileo-cecal junction. The small intestine was then returned to the abdominal cavity and the incision closed by two layers of sutures.
(§4) Age-matched mice were randomly assigned to groups (6 animals per group) and injected intraperitoneally (i.p.) with “vehicle” (a mixture of 5% ethanol/5% Tween80/90% of 5% dextran in water w/v) containing various doses of a test compound 1 hr prior to laparotomy. The second group was injected intraperitoneally with vehicle. The third group was administered intragastrically (1 mg/kg) a mixture (1 mg/mL) of dexamethasone in 20% hydroxypropyl methyl dextran in water, once per day for two days prior to surgery and 5 hrs post-laparotomy. The fourth group received no intervention and served as naïve controls.
Microscopic histological examination was performed on harvested tissues 24 hr post-laparotomy. […] Hanker-Yates reagent (Polysciences Inc.) forms an insoluble, blue-black polymer in the presence of hydrogen peroxide and peroxidase enzyme activity. Segments of mid small bowel were collected from the centrifuge tubes described in the previous section. Whole mounts of the muscle layer were prepared by opening the tube of bowel along the mesenteric border and pinning the tissue flat in a Sylgard™ lined Petri dish with the mucosal surface facing upward. The tissue was stretched to 1.5 times its length and 2.5 times its width, and the mucosa removed by fine dissection. The remaining muscularis whole mounts were then fixed with 100% ethanol for 45 min, washed 3 times with PBS, and incubated for 20 min in PBS containing 0.1% hydrogen peroxide and 1 mg/ml Hanker-Yates reagent (Polysciences, Inc). The reagent is polymerized in the presence of hydrogen peroxide and peroxidase activity to form a blue-black deposit. Following a second wash with PBS, the whole mounts were mounted on glass slides, cover-slipped, and viewed on an optical microscope. Myeloperoxidase containing leukocytes were counted in 6 to 8 adjacent 200× optical fields, and the mean cell counts were calculated and recorded.
The presence of myeloperoxidase (MPO) positive immune cells in the intestinal muscularis is rare in normal animals.

Male CD-1 mice [6] = experiment: Postoperative inflammatory ileus, upper gastrointestinal transit (FITC-dextran, Geometric Center); assay type: in vivo; conditions: Surgical Manipulation, dose 1 mg/kg, 24 hr post-laparotomy, mean ± SE; scale 1 to 15
Method: as §3, §4
Upper gastrointestinal transit was measured 24 hr post-laparotomy. Mice were fed a test meal consisting of 150 μL of FITC-dextran solution (5 mg/mL of 70,000 molecular weight dextran conjugated to fluorescein-isothiocyanate in 0.5% hydroxypropyl methylcellulose/deionized water) administered intragastrically by an 18 gauge feeding tube. Following oral administration of the FITC-dextran test meal, animals were returned to their home cages. Following a 45 min test period, mice were euthanized by isoflurane overdose and exsanguination. The entire gastrointestinal tract from the lower esophageal sphincter to the terminal colon was removed. The bowel segments were opened along the mesenteric border. The tissue and luminal contents of the stomach, 10 equal segments of small intestine, the cecum, and 3 equal segments of colon were placed in individual Eppendorf tubes containing 1 ml of PBS. The tissue was vigorously mixed on a tabletop vortex, and solid materials were pelletized by centrifugation. Aliquots of the cleared supernatant were read in duplicate on a 96-well fluorescence plate reader to quantify the magnitude of the fluorescent signal in each segment of bowel.
These values were used to calculate the Geometric Center (REF), which is defined as the weighted average distribution of the fluorescent signal along the gastrointestinal tract: GC=Σ(% of total fluorescent signal per segment×segment number)/100,
Higher GC values represent faster rates of transit on scale of 1 to 15.
Surgical manipulation of the small bowel leads to a significant delay in gastrointestinal transit, going from a Geometric Center of 8.4 in normal mice to 3.3 in vehicle treated animals.

CB1 receptor [7] = biological target: T1, CB1 receptor; experiment: Modified binding assay, CB1 receptor in CHO cells, [3H]CP 55940; conditions: [3H]CP 55940 0.5 nM, 120 minutes at 37° C.
Method: (§5) Additional receptor binding studies were performed with minor modifications as detailed below.
(§6) The human CB1 and CB2 receptors were stably expressed in CHO cells as described in Rinaldi-Carmona, M., Calandra, B., Shire, D., Bouaboula, M., Oustric, D., Barth, F., Casellas, P., Ferrara, P. and Le Fur, G. (1996) J. PharmacoL Exp. Ther., 278: 871-878 and Munro, S., Thomas, K. L. and Abu-Shaar, M. (1993) Nature, 365: 61-65, respectively. [^3H]CP 55940 (0.5 nM) was used as the radioligand for the CB1 receptor binding assay. [^3H]WIN 55212 (0.8 nM) was used as the radioligand for the CB2 receptor binding assay. Incubation was carried out for 120 minutes at 37° C.
(§7) The specific ligand binding to the receptors is defined as the difference between the total binding and the nonspecific binding determined in the presence of an excess of unlabelled ligand. The results are expressed as a percent of control specific binding ((measured specific binding/control specific binding)×100) obtained in the presence of the test compounds.
(§8) The IC50 values (concentration causing a half-maximal inhibition of control specific binding) were determined by non-linear regression analysis of the competition curves generated with mean replicate values using Hill equation curve fitting (where Y=specific binding, D=minimum specific binding, A=maximum specific binding, C=compound concentration, C50=IC50 and nH=slope factor): (Y=D+[(A−D)/(1+(C/C50)^nH)] CB1 and CB2 Receptor Binding Results
(§9) For compounds tested, an IC50 binding value was obtained from percent inhibition studies in which various test concentrations were used.

CB2 receptor [8] = biological target: T2, CB2 receptor; experiment: Modified binding assay, CB2 receptor in CHO cells, [3H]WIN 55212; conditions: [3H]WIN 55212 0.8 nM, 120 minutes at 37° C.
Method: as §5, §6, §7, §8, §9

[9] = test concentration 0.2 μM (footnote 2), 0.2 µM

T1 sequence (P21554 whole entry): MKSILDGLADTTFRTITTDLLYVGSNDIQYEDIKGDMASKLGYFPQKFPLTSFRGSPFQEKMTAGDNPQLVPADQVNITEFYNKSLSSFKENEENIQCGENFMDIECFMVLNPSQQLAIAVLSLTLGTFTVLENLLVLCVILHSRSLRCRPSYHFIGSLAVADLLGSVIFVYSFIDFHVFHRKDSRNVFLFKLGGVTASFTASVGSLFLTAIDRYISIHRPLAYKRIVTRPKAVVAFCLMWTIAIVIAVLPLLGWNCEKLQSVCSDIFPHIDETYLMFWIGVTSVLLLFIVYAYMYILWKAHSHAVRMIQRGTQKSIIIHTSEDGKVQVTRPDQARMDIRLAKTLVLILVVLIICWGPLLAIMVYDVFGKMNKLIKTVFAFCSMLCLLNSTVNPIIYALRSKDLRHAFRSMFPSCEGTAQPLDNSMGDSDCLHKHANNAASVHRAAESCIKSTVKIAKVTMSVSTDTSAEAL

Row | SMILES | CB1 receptor binding percent inhibition (CB1 receptor [1]; [9]) | CB2 receptor binding percent inhibition (CB2 receptor [2]; [9]) | EC50 (CB1 receptor [3]) | EC50 (CB2 receptor [4]) | MPO-Positive Cells (Per 200× Optical Field) (Male CD-1 mice [5]) | Geometric Center (upper gastrointestinal transit) (Male CD-1 mice [6]) | inhibition at 0.2 µM (CB1 receptor [1]; read-out: CB1 receptor binding percent inhibition, test concentration 0.2 μM (footnote 2)) | inhibition at 0.2 µM (CB2 receptor [2]; read-out: CB2 receptor binding percent inhibition, test concentration 0.2 μM (footnote 2)) | IC50 (CB1 receptor [7]) | IC50 (CB2 receptor [8])
1 | C[C@H](NS(=O)(=O)/C=C/c1n[nH]c2c1CCCCC2Cc1cccc(F)c1)c1ccccc1 (single isomer, unassigned) [Cpd 233, (2E)-2-[(8S*)-8-(3-fluoro-benzyl)-1,4,5,6,7,8-hexahydro-cycloheptapyrazol-3-yl]-ethenesulfonic acid [(1S)-1-phenyl-ethyl]-amide] | ^(2)0% | ^(2)20% | ~4400 nM | ~1300 nM | – | – | – | – | – | –
2 | C[C@@H]1C[C@H]2[C@@H]3CCC4=CC(=O)C=C[C@]4(C)[C@@]3(F)[C@@H](O)C[C@]2(C)[C@@]1(O)C(=O)CO [dexamethasone, reference compound] | – | – | – | – | 29.8 ± 3.9 | 6.0 ± 0.14 | – | – | – | –
3 | O=C(N[C@H](CO)c1ccccc1)c1n[nH]c2c1CCCCC2Cc1cccc(Cl)c1 (stereo partly drawn) [Cpd 164, 8-(3-chloro-benzyl)-1,4,5,6,7,8-hexahydro-cycloheptapyrazole-3-carboxylic acid [(1S)-2-hydroxy-1-phenyl-ethyl]-amide] | – | – | > 1000 nM | 25 nM | – | – | 26% | 94% | 870 nM | 230 nM
